{"source": "paper PMC2877818", "about": "“Thermodynamics of RTA3 peptide binding to membranes and consequences for antimicrobial activity^” (Biochimica et Biophysica Acta, 2010)", "key": {"[1]": {"tested_on": "E. coli 345-2 outer membrane", "experiment": "Outer membrane permeabilization to nitrocefin", "details": "read-out: OM permeabilization: peptide concentration resulting in half-maximal translocated substrate turnover, triplicate", "protocol": "Outer and inner membrane permeabilities were determined as described previously [16]. E. coli cells overexpressing β-lactamase were grown to logarithmic phase, washed, and resuspended (10^8 CFU/mL) in 10 mM HEPES buffer pH 7.4. About 90 µL of 1 × 10^7 CFU of the test organism (E. coli 345-2) containing 20 µg/mL nitrocefin was then added to 96-well microtitre plates containing serial twofold dilutions of antimicrobial peptides. Nitrocefin cleavage was monitored by measuring A490. All data were measured in triplicate."}, "E. coli ATCC 25922": {"tested_on": "E. coli ATCC 25922", "format": "cell-based", "details": "broth microdilution, Mueller Hinton (plus cations) broth, 24 hours at 37 °C, no visible growth; triplicate, averaged", "experimental": "(§1) Minimum inhibitory concentrations (MIC) of the peptides were determined by broth microdilution according to the Clinical and Laboratory Standards Institute. About 90 µL of 0.5–1 × 10^6 CFU/mL of Pseudomonas aeruginosa ATCC 27853 and E. coli ATCC 25922 in Mueller Hinton media (plus cations) broth (BD, Baltimore, MD, USA) was incubated in 96-well microtitre plates with serial twofold dilutions of the peptides. Minimum inhibitory concentrations (MICs) were defined as the lowest peptide concentration with no visible growth of bacteria after 24 hours at 37 °C. All measurements were made in triplicate and averaged."}, "E. coli 345-2": {"tested_on": "E. coli 345-2", "format": "cell-based", "details": "broth microdilution, Mueller Hinton (plus cations) broth, 24 hours at 37 °C; triplicate, averaged"}, "E. coli UB 122": {"tested_on": "E. coli UB 122", "format": "cell-based", "details": "broth microdilution, Mueller Hinton (plus cations) broth, 24 hours at 37 °C; triplicate, averaged"}, "[2]": {"tested_on": "E. coli 122 inner membrane", "experiment": "Inner membrane permeabilization to ONPG", "details": "read-out: IM permeabilization: peptide concentration resulting in half-maximal translocated substrate turnover, PBS pH 7.4, 30 °C, triplicate", "protocol": "Inner membrane permeability was determined by measuring the β-galactosidase activity of lactose permease-deficient E. coli at 30 °C using ONPG as substrate. E. coli cells overexpressing the β- galactosidase enzyme (E. coli 122) were grown to logarithmic phase, washed, and resuspended (10^8 CFU/mL) in phosphate buffered saline pH 7.4. About 90 µL of 1 × 10^7 CFU of the test organism containing 0.4 mg/mL ONPG was then added to 96-well microtitre plates containing serial twofold dilutions of antimicrobial peptides. The production of o-nitrophenol was monitored spectrophotometrically at 420 nm. An equivalent volume of water replaced the peptide solution in the control assay. All data were measured in triplicate."}, "P. aeruginosa ATCC 27853": {"tested_on": "P. aeruginosa ATCC 27853", "format": "cell-based, Pseudomonas aeruginosa", "details": "broth microdilution, Mueller Hinton (plus cations) broth, 24 hours at 37 °C, no visible growth; triplicate, averaged", "experimental": "as §1"}}, "note": "pEC50: −log10 of the molar value. Read-outs that look alike come from different tables or passages of the source."}
{"substance": "Polymyxin E", "values": [{"measurement": "pEC50", "setting": "[1]; +Mg2+ (0.4 mM MgCl2), nitrocefin, 10 mM HEPES pH 7.4", "value": 5.74}, {"measurement": "pEC50", "setting": "[1]; −Mg2+, nitrocefin 20 µg/mL, 10 mM HEPES pH 7.4, A490", "value": 5.70}, {"measurement": "MIC E. coli ATCC 25922", "setting": "E. coli ATCC 25922", "value": 1, "unit": "µM"}, {"measurement": "MIC E. coli 345-2", "setting": "E. coli 345-2", "value": 0.5, "unit": "µM"}, {"measurement": "MIC E. coli UB 122", "setting": "E. coli UB 122", "value": 0.5, "unit": "µM"}, {"measurement": "pEC50", "setting": "[2]; +Mg2+ (0.4 mM MgCl2), ONPG", "value": "< 4.00"}, {"measurement": "pEC50", "setting": "[2]; −Mg2+, ONPG 0.4 mg/mL, 420 nm", "value": "< 4.40"}, {"measurement": "MIC P. aeruginosa ATCC 27853", "setting": "P. aeruginosa ATCC 27853", "value": 2, "unit": "µM"}]}
